Read-outs that look alike come from different tables or passages of the source.

These results are taken from paper PMC10530836, “Synthesis, Molecular Docking, and Biological Evaluation of Novel Anthranilic Acid Hybrid and Its Diamides as Antispasmodics” (International Journal of Molecular Sciences, 2023).

Series [1] has as its system Klebsiella pneumoniae ATCC 13883. Nature of the series: Antimicrobial activity, agar well diffusion. Type of series: cell-based. The note with it: Dose 0.6 mg/disk, dwell = 6 mm. On the technique in general: In agar diffusion tests the substance spreads into inoculated agar from a disc or well.
Series [2] in a line: MTT cell viability assay. The series is classed as cell-based. The following applies: human, 72 h exposure, ± SD, read-out: In vitro cytotoxicity IC50. The protocol: (§1) To evaluate the biocompatibility of the hybrid compounds, their in vitro antiproliferative activity was assessed in a panel of human malignant cell lines of different origin (K-562 and LAMA-84 suspension-growing myeloid leukemia cells, positive for the Philadelphia chromosome, and the urothelial bladder carcinoma cell line T-24 of adherent type). Non-malignant murine fibroblast cells (CCL-1) were also used as a screening platform. All cell lines were purchased from the German Collection of Microorganisms and Cell Cultures (DSMZ GmbH, Braunschweig, Germany). Cell cultures were cultivated in a growth medium RPMI 1640 supplemented with 10% fetal bovine serum (FBS), and 5% L-glutamine and were incubated under standard conditions of 37 °C and 5% humidified CO2 atmosphere. The effects of the newly synthesized anthranilic derivatives on cell viability were measured using a validated colorimetric assay for evaluating cell viability, known as the Mosmann MTT method. Exponential-phased cells were harvested and seeded (100 μL/well) in 96-well plates at the appropriate density (3 × 10^5 for the suspension cultures LAMA-84 and K-562 and 1.5 × 10^5 for the adherent T-24 and CCL-1 cells). Following a 24 h incubation, cells were treated with various concentrations of the experimental compounds in the concentration range of 200–12.5 μM. After an exposure time of 72 h, filter-sterilized MTT substrate solution (5 mg/mL in PBS) was added to each well of the culture plate. A further 2–4 h incubation allowed for the formation of purple insoluble formazan crystals. The latter was dissolved in isopropyl alcohol solution containing 5% formic acid prior to absorbance measurement at 550 nm. Collected absorbance values were blanked against MTT and isopropanol solution and normalized to the mean value of untreated control (100% cell viability).
Background: Formazan colour is commonly taken as a measure of viable cells.

Series [3] relates to Enterococcus faecalis ATCC 29212. Kind of series: Antimicrobial activity, agar well diffusion. Type of series: cell-based. The following applies: Dose 0.6 mg/disk, dwell = 6 mm.
Series [4] has as its system Salmonella enteritidis ATCC 13076. Nature of the series: Antimicrobial activity, agar well diffusion. The series is classed as cell-based. The following applies: Dose 0.6 mg/disk, dwell = 6 mm. The source says:
(§2) Twenty tested microorganisms including six Gram-positive bacteria (Bacillus subtilis ATCC 6633, Bacillus amyloliquefaciens 4BCL-YT, Staphylococcus aureus ATCC 25923, Listeria monocytogenes NBIMCC 8632, Enterococcus faecalis ATCC 19433), six Gram-negative bacteria (Salmonella enteritidis ATCC 13076, Klebsiella sp.—clinical isolate, Escherichia coli ATCC 25922, Proteus vulgaris ATCC 6380, Pseudomonas aeruginosa ATCC 9027), two yeasts (Candida albicans NBIMCC 74, Saccharomyces cerevisiae ATCC 9763), and six fungi (Aspergillus niger ATCC 1015, Aspergillus flavus, Penicillium sp., Rhizopus sp., Mucor sp.—plant isolates, Fusarium moniliforme ATCC 38932) from the collection of the Department of Microbiology at the University of Food Technologies—Plovdiv, Bulgaria, were selected for the antimicrobial activity test. The antimicrobial activity of the samples was determined by the agar well diffusion method. The tested bacteria B. subtilis and B. amyloliquefaciens were cultured on LBG agar at 30 °C. The test bacteria S. aureus, L. monocytogenes, E. faecalis, S. enteritidis, Klebsiella sp., E. coli, P. vulgaris, and P. aeruginosa were cultured on LBG agar at 37 °C for 24 h. The yeast C. albicans was cultured on MEA at 37 °C, while S. cerevisiae was cultured on MEA at 30 °C for 24 h. The fungi A. niger, A. flavus, Penicillium sp., Rhizopus sp., Mucor sp., and F. moniliforme were grown on MEA at 30 °C for 7 days or until sporulation. The inocula of the tested bacteria/yeasts was prepared by homogenization of a small amount of biomass in 5 mL of sterile 0.5% NaCl. The inocula of tested fungi were prepared by the addition of 5 mL of sterile 0.5% NaCl into the tubes. After stirring by vortex V-1 plus (Biosan), they were filtered and replaced in other tubes before use. The number of viable cells and fungal spores was determined using a bacterial counting chamber Thoma (Poly-Optik, GmbH, Bad Blankenburg, Germany). Their final concentrations were adjusted to 10^8 cfu/mL for bacterial/yeast cells and 10^5 cfu/mL for fungal spores and then inoculated in preliminarily melted and tempered at 45–48 °C LBG/MEA agar media. Next, the inoculated media were transferred in a quantity of 18 mL in sterile Petri plates (d = 90 mm) (Gosselin™, Hazebrouck, France) and allowed to harden. Then, six wells (d = 6 mm) per plate were cut, and triplicates of 60 μL of each extract were pipetted into the agar wells. The Petri plates were incubated in identical conditions. The antimicrobial activity was determined by measuring the diameter of the inhibition zones around the wells on the 24th and 48th h of incubation. Tested microorganisms with inhibition zones of 18 mm or more were considered sensitive; moderately sensitive were those in which the zones were from 12 to 18 mm; resistant were those in which the inhibition zones were up to 12 mm or completely missing.

The test system of series [5] is Escherichia coli ATCC 25922. Kind of series: Antimicrobial activity, agar well diffusion. The series is classed as cell-based. The following applies: Dose 0.6 mg/disk, dwell = 6 mm.
Text: as §2

Another series has as its system Aspergillus flavus. Nature of the series: Antimicrobial activity, agar well diffusion. Type of series: cell-based. The note with it: Dose 0.6 mg/disk, dwell = 6 mm.
Text: as §2

The test system of series [6] is Salmonella typhimurium NBIMCC 1672. Nature of the series: Antimicrobial activity, agar well diffusion. Type of series: cell-based. The following applies: Dose 0.6 mg/disk, dwell = 6 mm.
Text: as §2

The subject of series [7] is Proteus vulgaris ATCC 6380. Kind of series: Antimicrobial activity, agar well diffusion. The series is classed as cell-based. The note with it: Dose 0.6 mg/disk, dwell = 6 mm.
Text: as §2

Series [8] concerns Aspergillus niger ATCC 1015. Kind of series: Antimicrobial activity, agar well diffusion. The series is classed as cell-based. The following applies: Dose 0.6 mg/disk, dwell = 6 mm.
Text: as §2

Series [9] concerns Bacillus subtilis ATCC 6633. Kind of series: Antimicrobial activity, agar well diffusion. The series is classed as cell-based. The note with it: Dose 0.6 mg/disk, dwell = 6 mm.
Text: as §2

For series [10], the system named is Pseudomonas aeruginosa ATCC 9027. Kind of series: Antimicrobial activity, agar well diffusion. The series is classed as cell-based. The note with it: Dose 0.6 mg/disk, dwell = 6 mm.
Text: as §2

The subject of a further series is Rhizopus sp. Kind of series: Antimicrobial activity, agar well diffusion. Type of series: cell-based. The following applies: Dose 0.6 mg/disk, dwell = 6 mm.
Text: as §2

Series [11] deals with Bacillus amyloliquefaciens 4BCL-YT. Nature of the series: Antimicrobial activity, agar well diffusion. The series is classed as cell-based. The following applies: Dose 0.6 mg/disk, dwell = 6 mm.
Text: as §2

In series [12] the test system is Staphylococcus aureus ATCC 25923. Kind of series: Antimicrobial activity, agar well diffusion. Type of series: cell-based. The following applies: Dose 0.6 mg/disk, dwell = 6 mm.
Text: as §2

Series [13] relates to Micrococcus luteus 2YC-YT. Kind of series: Antimicrobial activity, agar well diffusion. Type of series: cell-based. The note with it: Dose 0.6 mg/disk, dwell = 6 mm.
Text: as §2

Series [14] has as its system Listeria monocytogenes NBIMCC 8632. Nature of the series: Antimicrobial activity, agar well diffusion. The note with it: Dose 0.6 mg/disk, dwell = 6 mm. Type of series: cell-based.
Text: as §2

The next series relates to Penicillium chrysogenum. Kind of series: Antimicrobial activity, agar well diffusion. Type of series: cell-based. The note with it: Dose 0.6 mg/disk, dwell = 6 mm.
Text: as §2

The nature of series [15]: MTT cell viability assay. Type of series: cell-based, murine. The note with it: mouse, CCL-1 normal fibroblast cells (adherent); CCL-1, MTT, 72 h exposure, ± SD; read-out: In vitro cytotoxicity IC50. The protocol:
as §1

[16] abbreviates: K-562 myeloid leukemia cells (suspension), K-562, MTT.
Where [17] appears, read: LAMA-84 myeloid leukemia cells (suspension), LAMA-84, MTT.
Where [18] appears, read: T-24 urothelial bladder carcinoma cells (adherent), T-24, MTT.

For the compound `Nc1ccccc1C(=O)NCCc1cccc(Cl)c1` [Compound 3, 2-amino-N-(3-chlorophenethyl)benzamide], the “Inhibition Zones” value is on record as 8 mm in [1]; 12 mm in series [3]; 12 mm in series [4]; 13 mm in series [5]; 20 mm in the series on Aspergillus flavus; 12 mm in [6]. Further, the “Inhibition Zones” value in series [7] worked out at 8 mm; in [8], 20 mm; in series [9], 12 mm; in [10] it was 14 mm; with Rhizopus sp. it was 20 mm; in series [11], 11 mm. Also, the “Inhibition Zones” value was determined as 8 mm in series [12], 19 mm in series [13], 12 mm in [14] and 20 mm in the series on Penicillium chrysogenum. Also, the IC50 at 72 h is 154 ± 11.1 µM in the series “MTT cell viability assay [2]” (setting [16]), 115 ± 10.5 µM in “MTT cell viability assay [2]” (setting [17]), 137 ± 12.5 µM in “MTT cell viability assay [2]” (setting [18]) and over 200 µM in “MTT cell viability assay [15]”.
`CC(=O)Nc1ccccc1C(=O)NCCc1cccc(Cl)c1` [Compound 4a, 2-acetamido-N-(3-chlorophenethyl)benzamide]: the “Inhibition Zones” value in [1] amounted to 14 mm; in series [3] it was 12 mm; in series [4], 12 mm; in series [5] it was 9 mm; in the series on Aspergillus flavus, 8 mm; in series [6], 8 mm. Besides, the “Inhibition Zones” value is 8 mm in series [7]; 10 mm in series [8]; 8 mm in [9]; 9 mm in series [10]; 8 mm in the series on Rhizopus sp.; 10 mm in series [13]. The “Inhibition Zones” value in series [14] amounted to 8 mm; with Penicillium chrysogenum it was 13 mm. Besides, the IC50 at 72 h was over 200 µM in the series “MTT cell viability assay [2]” (setting [16]), 112 ± 9.4 µM in the series “MTT cell viability assay [2]” (setting [17]), over 200 µM in the series “MTT cell viability assay [2]” (setting [18]) and over 200 µM in “MTT cell viability assay [15]”.
Regarding `O=C(Nc1ccccc1C(=O)NCCc1cccc(Cl)c1)c1ccccc1` [Compound 4b, 2-benzamido-N-(3-chlorophenethyl)benzamide], the half-inhibitory concentration (IC50) at 72 h in the series “MTT cell viability assay [2]” (setting [16]) is 55.2 ± 4.7 µM; in “MTT cell viability assay [2]” (setting [17]) it was 60.7 ± 5.3 µM; in “MTT cell viability assay [2]” (setting [18]), 94.9 ± 5 µM; in “MTT cell viability assay [15]”, over 200 µM. Moreover, the “Inhibition Zones” value in series [3] amounted to 8 mm; in series [4], 8 mm; in series [5] it was 11 mm; with Aspergillus flavus, 13 mm; in [6], 8 mm; in series [7], 8 mm. The “Inhibition Zones” value in series [8] was determined as 11 mm; in series [9], 11 mm; in series [10], 10 mm; with Rhizopus sp., 11 mm; in series [11], 10 mm; in series [12], 8 mm. Also, the “Inhibition Zones” value in [13] came out at 15 mm; in series [14] it was 12 mm; with Penicillium chrysogenum, 15 mm.

As a reminder, the IC50 is the concentration that gives 50% inhibition.
